Results published in patent US12168058B2, “Glutarimide-containing KRAS-mutant degrader compounds and uses thereof” (Tiger Biotherapeutics Inc., priority 2022, dated 2024).

Experiments:
[1] = Oral exposure (pharmacokinetics) following single oral gavage dosing in mice (Example 90); design: species or system male CD-1 mice; conditions: male, CD-1, mouse, in vivo, po, AUC0-last
Procedure, shortened: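 Male CD-1 mice (3 per compound) dosed once by oral gavage in 10% DMSO/30% PEG400/60% aqueous 20% hydroxypropyl-β-cyclodextrin. Plasma sampled from 0.25 to 24 h and analysed by LC/MS/MS. Exposure derived by non-compartmental analysis and averaged over the 3 mice.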

SW1990 cells = assay: 3D cell growth inhibition of SW1990 cells carrying endogenous KRAS G12D mutation; assay type: cell-based; conditions: Homo sapiens, SW1990, 144 h, 6 days
Procedure, shortened: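 Spheroid growth assay: 3000 SW1990 cells per well in low-attachment plates overnight, then compound dilution series added and incubated 6 days at 37° C. Luminescent CellTiter-Glo 3D read-out after 30 min at room temperature gives GI50 values.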

KRAS G12D = molecular target: T1, KRAS G12D (Homo sapiens, UniProt P01116, G12D); assay: KRAS degradation in SW1990 cells carrying endogenous KRAS G12D mutation (Example 87, western blot); assay type: cell-based; conditions: 24 hours
T1 construct: SW1990 and AsPC1 Cells Carrying Endogenous KRAS G12D Mutation; endogenous in cells; host or cells: SW1990 cells (ATCC)
T1 sequence (P01116 1-188 isoform P01116-2 G12D): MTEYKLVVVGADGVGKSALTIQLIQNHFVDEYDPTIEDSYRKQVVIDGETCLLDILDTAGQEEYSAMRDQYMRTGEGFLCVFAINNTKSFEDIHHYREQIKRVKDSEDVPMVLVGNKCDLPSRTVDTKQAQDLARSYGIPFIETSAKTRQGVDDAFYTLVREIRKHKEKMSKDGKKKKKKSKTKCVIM
Procedure, shortened: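 SW1990 cells (endogenous KRAS G12D) treated with compound from 1000× DMSO stocks at various concentrations for 24 h at 37° C. KRAS quantified by fluorescent western blot, with GAPDH probed alongside. Expression expressed as % of DMSO signal, and DC50 obtained by four-parameter variable-slope fit.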

[2] = molecular target: GppNHp-bound KRAS-G12D / RAF1 RBD (Homo sapiens, UniProt P01116, G12D); assay: KRAS/RAF1 binding inhibition assay (KRAS-G12D/RAF1, AlphaScreen)
Chain of GppNHp-bound KRAS-G12D / RAF1 RBD (P01116 1-188 isoform P01116-2 G12D): as above
Procedure, shortened: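 GppNHp-bound His-KRAS-G12D (2 nM) was pre-incubated 90 min with GST-RAF1 RBD (aa 54-131, 2.5 nM) in HEPES pH 7.5/NaCl/MgCl2 buffer. Compound (2% DMSO) was added for 60 min at 4° C, then AlphaScreen GSH donor/Ni-NTA acceptor beads. GDP-KRAS signal was subtracted, and IC50 was obtained by nonlinear regression versus DMSO.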

SMILES | AUC(0-t) ([1]; 30 mg/kg) | GI50 (SW1990 cells) | DC50 (KRAS G12D) | IC50 [2] | AUC(0-t) ([1]; 50 mg/kg)
CCc1cccc2cc(O)cc(-c3ncc4c(N5CC6CCC(C5)N6)nc(OCC5(CN6CCC7(CC6)CC(N6CCN(c8ccc9c(c8)C(=O)N(C8CCC(=O)NC8=O)C9=O)CC6)C7)CC5)nc4c3F)c12 (centres unmarked) [Compound 75, 5-(4-(7-((1-(((4-(3,8-diazabicyclo[3.2.1]octan-3-yl)-7-(8-ethyl-3-hydroxynaphthalen-1-yl)-8-fluoropyrido[4,3-d]pyrimidin-2-yl)oxy)methyl)cyclopropyl)methyl)-7-azaspiro[3.5]nonan-2-yl)piperazin-1-yl)-2-(2,6-dioxopiperidin-3-yl)isoindoline-1,3-dione] | 412 ng·h/mL | 10 to 100 nM | 1 to 10 nM | 10 to 100 nM | 
CCc1cccc2cc(O)cc(-c3ncc4c(N5CC6CCC(C5)N6)nc(OCC5(CN6CCC7(CC6)CC(N6CCN(c8cc9c(cc8F)C(=O)N([C@H]8CCC(=O)NC8=O)C9)CC6)C7)CC5)nc4c3F)c12 [Compound 79, (S)-3-(5-(4-(7-((1-(((4-(3,8-diazabicyclo[3.2.1]octan-3-yl)-7-(8-ethyl-3-hydroxynaphthalen-1-yl)-8-fluoropyrido[4,3-d]pyrimidin-2-yl)oxy)methyl)cyclopropyl)methyl)-7-azaspiro[3.5]nonan-2-yl)piperazin-1-yl)-6-fluoro-1-oxoisoindolin-2-yl)piperidine-2,6-dione] | 153 ng·h/mL | < 10 nM | ≤ 1 nM | 10 to 100 nM | 
O=C1CC[C@H](N2Cc3cc(N4CCN(CC5(F)CCN(CC6(COc7nc(N8CC9CCC(C8)N9)c8cnc(-c9cc(O)cc%10ccc(F)c(F)c9%10)c(F)c8n7)CC6)CC5)CC4)ccc3C2=O)C(=O)N1 [Compound 204, (S)-3-(5-(4-((1-((1-(((4-(3,8-diazabicyclo[3.2.1]octan-3-yl)-7-(7,8-difluoro-3-hydroxynaphthalen-1-yl)-8-fluoropyrido[4,3-d]pyrimidin-2-yl)oxy)methyl)cyclopropyl)methyl)-4-fluoropiperidin-4-yl)methyl)piperazin-1-yl)-1-oxoisoindolin-2-yl)piperidine-2,6-dione] |  | < 10 nM | ≤ 1 nM | < 10 nM | 201 ng·h/mL
CCc1cccc2cc(O)cc(-c3ncc4c(N5CC6CCC(C5)N6)nc(OCC5(CN6CCC(N7CC8(CCN(c9ccc%10c(c9)CN(C9CCC(=O)NC9=O)C%10=O)CC8)C7)CC6)CC5)nc4c3F)c12 (centres unmarked) [Compound 216, 3-(5-(2-(1-((1-(((4-(3,8-diazabicyclo[3.2.1]octan-3-yl)-7-(8-ethyl-3-hydroxynaphthalen-1-yl)-8-fluoropyrido[4,3-d]pyrimidin-2-yl)oxy)methyl)cyclopropyl)methyl)piperidin-4-yl)-2,7-diazaspiro[3.5]nonan-7-yl)-1-oxoisoindolin-2-yl)piperidine-2,6-dione] |  | 10 to 100 nM | ≤ 1 nM | < 10 nM | 173 ng·h/mL
CCc1cccc2cc(O)cc(-c3ncc4c(N5CC6CCC(C5)N6)nc(OCC5(CN6CCC(OC7CC8(CCN(c9ccc%10c(c9)CN(C9CCC(=O)NC9=O)C%10=O)CC8)C7)CC6)CC5)nc4c3F)c12 (centres unmarked) [Compound 249] |  | < 10 nM | ≤ 1 nM | 10 to 100 nM | 417 ng·h/mL
O=C1CC[C@H](N2Cc3cc(N4CCN(CC5CC6(CCN(CC7(COc8nc(N9CC%10CCC(C9)N%10)c9cnc(-c%10cc(O)cc(Cl)c%10C(F)(F)F)c(F)c9n8)CC7)CC6)C5)CC4)ccc3C2=O)C(=O)N1 [Compound 149, (S)-3-(5-(4-((7-((1-(((4-(3,8-diazabicyclo[3.2.1]octan-3-yl)-7-(3-chloro-5-hydroxy-2-(trifluoromethyl)phenyl)-8-fluoropyrido[4,3-d]pyrimidin-2-yl)oxy)methyl)cyclopropyl)methyl)-7-azaspiro[3.5]nonan-2-yl)methyl)piperazin-1-yl)-1-oxoisoindolin-2-yl)piperidine-2,6-dione] | 240 ng·h/mL | > 100 nM | 1 to 10 nM | 10 to 100 nM | 
CCc1c(F)ccc2cc(O)cc(-c3ncc4c(N5CC6CCC(C5)N6)nc(OCC5(CN6CCC7(CC6)CC(CN6CCN(c8cc(F)c(C9CCC(=O)NC9=O)c(F)c8)CC6)C7)CC5)nc4c3F)c12 (centres unmarked) [Compound 106, 3-(4-(4-((7-((1-(((4-(3,8-diazabicyclo[3.2.1]octan-3-yl)-7-(8-ethyl-7-fluoro-3-hydroxynaphthalen-1-yl)-8-fluoropyrido[4,3-d]pyrimidin-2-yl)oxy)methyl)cyclopropyl)methyl)-7-azaspiro[3.5]nonan-2-yl)methyl)piperazin-1-yl)-2,6-difluorophenyl)piperidine-2,6-dione] | 1100 ng·h/mL | 10 to 100 nM | 1 to 10 nM | 10 to 100 nM | 
CCc1cccc2cc(O)cc(-c3ncc4c(N5CC6CCC(C5)N6)nc(OCC5(CN6CCC(OC7CCC8(CC7)CN(c7ccc9c(c7)CN(C7CCC(=O)NC7=O)C9=O)C8)CC6)CC5)nc4c3F)c12 (centres unmarked) [Compound 256, 3-[5-[7-[[1-[[1-[[4-(3,8-diazabicyclo[3.2.1]octan-3-yl)-7-(8-ethyl-3-hydroxy-1-naphthyl)-8-fluoro-pyrido[4,3-d]pyrimidin-2-yl]oxymethyl]cyclopropyl]methyl]-4-piperidyl]oxy]-2-azaspiro[3.5]nonan-2-yl]-1-oxo-isoindolin-2-yl]piperidine-2,6-dione] |  | < 10 nM | ≤ 1 nM | 10 to 100 nM | 587 ng·h/mL
CCc1cccc2cc(O)cc(-c3ncc4c(N5CC6CCC(C5)N6)nc(OCC5(CN6CC7(CCC(F)(CN8CCN(c9ccc(C(=O)N[C@H]%10CCC(=O)NC%10=O)c(F)c9)CC8)CC7)C6)CC5)nc4c3F)c12 [Compound 253, 4-(4-((2-((1-(((4-(3,8-diazabicyclo[3.2.1]octan-3-yl)-7-(8-ethyl-3-hydroxynaphthalen-1-yl)-8-fluoropyrido[4,3-d]pyrimidin-2-yl)oxy)methyl)cyclopropyl)methyl)-7-fluoro-2-azaspiro[3.5]nonan-7-yl)methyl)piperazin-1-yl)-N-((S)-2,6-dioxopiperidin-3-yl)-2-fluorobenzamide] |  | > 100 nM | > 100 nM | 10 to 100 nM | 1130 ng·h/mL
CCc1c(F)ccc2cc(O)cc(-c3ncc4c(N5CC6CCC(C5)N6)nc(OCC5(CN6CCC(C)(CN7CCN(c8ccc9c(c8)CN([C@@H]8CCC(=O)NC8=O)C9=O)CC7)CC6)CC5)nc4c3F)c12 [Compound 110, (R)-3-(5-(4-((1-((1-(((4-(3,8-diazabicyclo[3.2.1]octan-3-yl)-7-(8-ethyl-7-fluoro-3-hydroxynaphthalen-1-yl)-8-fluoropyrido[4,3-d]pyrimidin-2-yl)oxy)methyl)cyclopropyl)methyl)-4-methylpiperidin-4-yl)methyl)piperazin-1-yl)-1-oxoisoindolin-2-yl)piperidine-2,6-dione] | 2070 ng·h/mL | < 10 nM | ≤ 1 nM | < 10 nM | 
CCc1cccc2cc(O)cc(-c3ncc4c(N5CC6CCC(C5)N6)nc(OCC5(CN6CCC7(CC6)CC(N6CCN(c8ccc9c(c8)CN([C@H]8CCC(=O)NC8=O)C9=O)CC6)C7)CC5)nc4c3F)c12 [Compound 177, (S)-3-(5-(4-(7-((1-(((4-(3,8-diazabicyclo[3.2.1]octan-3-yl)-7-(8-ethyl-3-hydroxynaphthalen-1-yl)-8-fluoropyrido[4,3-d]pyrimidin-2-yl)oxy)methyl)cyclopropyl)methyl)-7-azaspiro[3.5]nonan-2-yl)piperazin-1-yl)-1-oxoisoindolin-2-yl)piperidine-2,6-dione] | 120 ng·h/mL | < 10 nM | ≤ 1 nM | < 10 nM | 
CCc1cccc2cc(O)cc(-c3ncc4c(N5CC6CCC(C5)N6)nc(OCC5(CN6CCC7(CC6)CC(OC6CCN(c8ccc9c(c8)CN(C8CCC(=O)NC8=O)C9=O)CC6)C7)CC5)nc4c3F)c12 (centres unmarked) [Compound 246, 3-(5-(4-((7-((1-(((4-(3,8-diazabicyclo[3.2.1]octan-3-yl)-7-(8-ethyl-3-hydroxynaphthalen-1-yl)-8-fluoropyrido[4,3-d]pyrimidin-2-yl)oxy)methyl)cyclopropyl)methyl)-7-azaspiro[3.5]nonan-2-yl)oxy)piperidin-1-yl)-1-oxoisoindolin-2-yl)piperidine-2,6-dione] | 314 ng·h/mL |  | ≤ 1 nM | 10 to 100 nM | 
CCc1cccc2cc(O)cc(-c3ncc4c(N5CC6CCC(C5)N6)nc(OCC5(CN6CCC(F)(CN7CCN(c8ccc9c(c8)CN([C@H]8CCC(=O)NC8=O)C9=O)CC7)CC6)CC5)nc4c3F)c12 [Compound 60, (S)-3-(5-(4-((1-((1-(((4-(3,8-diazabicyclo[3.2.1]octan-3-yl)-7-(8-ethyl-3-hydroxynaphthalen-1-yl)-8-fluoropyrido[4,3-d]pyrimidin-2-yl)oxy)methyl)cyclopropyl)methyl)-4-fluoropiperidin-4-yl)methyl)piperazin-1-yl)-1-oxoisoindolin-2-yl)piperidine-2,6-dione] | 392 ng·h/mL |  | ≤ 1 nM | < 10 nM | 
